From patent publication US12447121B2, “Composition for promoting the skin microbiome” (BEIERSDORF AG, priority 2020, dated 2025)
“Also recorded” adds a separate entry of the source.

Legend:
S. epidermidis [1] = test: In vitro growth assay (OD, absorption at 600 nm); type: cell-based; settings: CASO deficiency medium
Protocol: Overnight cultures of S. epidermidis were inoculated in 20 ml CASO medium and incubated at 37° C. The culture was then diluted and adjusted to an OD600 of 0.25. From this suspension, the starting culture is prepared with a concentration of 5×10^5 CFU/ml by a 1:200 dilution in CASO deficiency medium. Subsequently, solutions containing the different nitrogen, carbon, and lipid sources were mixed with the start cultures and 200 μl/well were pipetted into a 96 well flat transparent plate, at least in triplets. The plate was placed in a Tecan Reader at 37° C. and Absorption was measured at 600 nm every hour over a period of 24-30 h.

S. epidermidis [2] = test: In vitro growth assay (plating, colony count); type: cell-based; settings: added to low nutrient medium, 37° C., plated and counted; FIGS. 1 and 2
Protocol: Potential growth-enhancing compounds that are effective in the stabilization of the microbiome were tested by the following in vitro assay. Overnight cultures of S. epidermidis is inoculated in 20 ml CASO medium and incubated at 37° C. The culture was then diluted and adjusted to an OD600 of 0.25. From this suspension, the starting culture is prepared with a concentration of 5×10^5 CFU/ml by a 1:200 dilution in CASO deficiency medium. Subsequently, solutions containing the different active ingredients were mixed with the start cultures and incubated in a thermal mixer at 37° C. by shaking. Samples are taken at the respective time points for testing, diluted with NaCl and plated out on CASO plates using the spiral plater. The plates are incubated for 24 h at 37° C. and then counted.

skin microbiome = test: In vivo volunteer study: microbial colony count of skin microbiome samples; set-up: species or system human; settings: applied in the form of a skin care composition to the facial skin (as worded in the summary)
Protocol: An in vivo study with 31 volunteers was conducted to examine whether the growth-enhancing compounds that were found effective in the in vitro test can also promote cell growth of the microorganisms in the skin microbiome in vivo when applied to the skin in the form of a lotion. For this purpose, a carrier lotion was prepared to which the test compounds, i.e. the compounds identified as growth-enhancing in the in vitro assays of Example 1, were added. The test formulations were prepared by mixing the compounds to be tested into the carrier lotion. The test formulations were composed as follows: • Formulation 20: […] Carrier lotion+1% urea, 1% sodium Lactate, 1% caprylic/capric triglycerides […] For measuring the microbial colony count, the test site was rinsed with swabs ([…] GmbH, […], Germany) by 3×10 lanes using 2 ml rinsing buffer (12.49 g/L Na2HPO; 0.63 g/L KH2PO4 in molecular grade H2O) in 15 ml Falcon tubes. The sample material was then plated within 60 minutes after collection on Columbia-Sheep-Blood-Tween (COST) agar plates and subsequently incubated. […] After incubation, the bacterial colonies on agar plates were counted using the Countermat Flash.

Compound | growth of S. epidermidis (summary in words of Tables 2 and 3) (S. epidermidis [1]) | growth of S. epidermidis within 24 hours (S. epidermidis [2]) | cell number of the resident bacteria (skin microbiome)
OC[C@H]1O[C@H](O[C@H]2[C@H](O)[C@@H](O)C(O)O[C@@H]2CO)[C@H](O)[C@@H](O)[C@@H]1O (mixture of isomers) [Maltose, maltose] | support the growth |  | 
O=C(CO)[C@@H](O)[C@H](O)[C@H](O)CO [Fructose, fructose] | support the growth |  | 
CC(O)C(=O)O (centres unmarked) [Lactate, lactate] | support the growth | significant growth; also recorded: significantly promotes the growth | 
OC[C@H]1O[C@@](CO)(O[C@H]2O[C@H](CO)[C@@H](O)[C@H](O)[C@H]2O)[C@@H](O)[C@@H]1O [Sucrose, saccharose] | support the growth |  | 
CC(O)C(=O)O (centres unmarked) [lactic acid] |  |  | increase
CC(=O)C(=O)O [pyruvic acid] |  |  | significantly increase
maltodextrin | support the growth |  | 
